Among the data in BindingDB's records for doi:10.1074/jbc.M113.510974 (Albert Einstein College of Medicine, 2013) are Ki values, retold here.

Broadly, the Ki is a measure of affinity in units of concentration, obtained from inhibition or displacement.

One assay has as its target Sulfotransferase 1A1 (Homo sapiens, UniProt P50225). The assay is described as follows: Amoxapine and Protriptyline Inhibition Assay. The note with it: pH 7.5; 2 °C. The method, then:
(§1) Sulfation of PnP was monitored optically at λ = 415 nm (ε415 = 10.6 mM-1 cm-1 at pH 7.5 [Whittemore et al., Biochemistry, 24:2477-2482).

Another assay concerns the target T1, Sulfotransferase 2A1 (Homo sapiens, UniProt Q06520).
T1 sequence (Q06520 whole entry): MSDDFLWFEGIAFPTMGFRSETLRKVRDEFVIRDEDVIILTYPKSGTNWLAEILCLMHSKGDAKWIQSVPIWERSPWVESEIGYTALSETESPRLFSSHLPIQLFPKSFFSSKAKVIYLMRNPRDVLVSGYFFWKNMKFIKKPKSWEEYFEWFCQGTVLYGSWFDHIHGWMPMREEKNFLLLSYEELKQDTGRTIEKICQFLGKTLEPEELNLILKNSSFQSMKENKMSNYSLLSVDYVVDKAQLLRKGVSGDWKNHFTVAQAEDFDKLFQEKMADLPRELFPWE
Nature of the assay: Amoxapine and Protriptyline Inhibition Assay. The note with it: pH 7.5; 2 °C. How it is done:
as §1

Chain of Sulfotransferase 1A1 (P50225 whole entry): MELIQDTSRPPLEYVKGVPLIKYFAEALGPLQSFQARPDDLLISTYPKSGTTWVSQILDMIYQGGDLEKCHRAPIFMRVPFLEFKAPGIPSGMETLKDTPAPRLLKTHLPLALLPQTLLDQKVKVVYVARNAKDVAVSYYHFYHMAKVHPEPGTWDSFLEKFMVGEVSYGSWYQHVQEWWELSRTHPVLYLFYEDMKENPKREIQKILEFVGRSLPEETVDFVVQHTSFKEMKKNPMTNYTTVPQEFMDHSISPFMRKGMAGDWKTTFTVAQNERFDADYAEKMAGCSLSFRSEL

`Clc1ccc2c(c1)C(N1CCNCC1)=Nc1ccccc1O2`: the values for the inhibition constant Ki at Sulfotransferase 1A1 and at Sulfotransferase 2A1 were 35 µM and 125 µM, respectively.

Take `CNCCCC1c2ccccc2C=Cc2ccccc21` [3-(5H-dibenzo[a,d][7]annulen-5-yl)-N-methylpropan-1-amine]: the figures for the Ki at Sulfotransferase 1A1 and on Sulfotransferase 2A1 were 55 µM and 76 µM, respectively.
